pIC50: −log10 of the molar value.
How the values were obtained:
Assay type in all cases: biochemical
[1] = target: EGFR T790M/L858R kinase domain (Homo sapiens (Human), UniProt P00533, L858R/T790M); experiment: EGFR enzymatic assay, TR-FRET, EGFR T790M/L858R
Description: (§1) Compounds disclosed herein were tested against WT EGFR kinase domain (aa.669-1210, Carna Biosciences, 08-115), EGFR T790M/L858R kinase domain (aa.669-1210, Carna Biosciences, 08-510) and EGFR L858R kinase domain (aa.669-1210, Carna Biosciences, 08-502) in assays based on time-resolved fluorescence-resonance energy transfer methodology. The assay was carried out in 384-well low volume black plate in a reaction mixture containing EGFR kinases, 20 LM for EGFR WT and T790M/L858R, and 125 LM for EGFR L858R), biotin-TK substrate and 0-5 LM compounds in buffer containing 50 mM HEPES pH7.5, 10 mM MgCl2, 1 mM EGTA, 0.01% Brij-35, 2.5 mM DTT, 0.1% BSA. The kinase was incubated with the compounds disclosed herein at room temperature for 120 minutes and the reaction was initiated by the addition of ATP and biotin-TK substrate. After reaction at room temperature for 30 minutes, an equal volume of stop/detection solution was added according to the manufacture's instruction (CisBio Bioassays). The stop/detection solution contained TK-Antibody-Cryptate and Streptavidin-XL665 in buffer containing 25 mM Tris pH7.4, 400 mM KF, 50 mM EDTA, 0.01% BSA, 0.01% Triton X-100. Plates were sealed and incubated at room temperature for 1 hour, and the TR-FRET signals were read on BMG PHERAstar FS instrument. The IC50 of an inhibitor was derived from fitting the % inhibition data at each compound concentration to the four-parameter logistic equation by Graphpad Prism software.

B-Raf (V600E) = B-Raf (V600E) (Homo sapiens (Human), UniProt P15056, V600E); experiment: Raf IC50 assay, TR-FRET, B-Raf (V600E); settings: 0.1 mM ATP; read-out: IC50 BRAF-V600E
Sequence of B-Raf (V600E) (P15056 whole entry V600E): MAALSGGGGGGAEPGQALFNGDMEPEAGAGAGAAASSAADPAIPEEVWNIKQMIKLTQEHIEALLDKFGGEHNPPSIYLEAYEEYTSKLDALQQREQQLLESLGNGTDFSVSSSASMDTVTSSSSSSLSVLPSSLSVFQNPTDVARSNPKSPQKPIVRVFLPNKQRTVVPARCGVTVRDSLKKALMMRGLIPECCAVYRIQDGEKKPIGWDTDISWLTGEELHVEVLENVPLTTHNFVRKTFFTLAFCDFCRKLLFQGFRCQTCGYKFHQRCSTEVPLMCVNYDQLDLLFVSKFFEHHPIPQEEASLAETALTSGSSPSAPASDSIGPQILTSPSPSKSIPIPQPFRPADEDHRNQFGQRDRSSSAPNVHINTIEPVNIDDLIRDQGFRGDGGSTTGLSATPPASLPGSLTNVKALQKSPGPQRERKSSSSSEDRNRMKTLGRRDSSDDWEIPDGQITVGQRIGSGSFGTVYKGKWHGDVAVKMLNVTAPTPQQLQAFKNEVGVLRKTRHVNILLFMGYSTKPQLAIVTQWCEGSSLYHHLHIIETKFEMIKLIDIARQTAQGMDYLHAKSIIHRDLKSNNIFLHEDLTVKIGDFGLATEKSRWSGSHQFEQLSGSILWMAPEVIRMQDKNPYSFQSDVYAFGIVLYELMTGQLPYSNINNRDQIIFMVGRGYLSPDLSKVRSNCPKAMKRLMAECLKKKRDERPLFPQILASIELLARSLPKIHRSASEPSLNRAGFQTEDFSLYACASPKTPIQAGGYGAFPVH
Description: The enzyme was incubated with the compounds disclosed herein at room temperature for 60 minutes and the reactions were initiated by the addition of ATP and GST-MEK1. After reaction at room temperature for 60 minutes, an equal volume of stop/detection solution was added according to the manufacture's instruction (CisBio Bioassays). […] The IC50 for each compound was derived from fitting the dose-response % inhibition data to the four-parameter logistic model by Graphpad Prism software.

EGFR L858R kinase domain = EGFR L858R kinase domain (Homo sapiens (Human), UniProt P00533, L858R); experiment: EGFR enzymatic assay, TR-FRET, EGFR L858R
Sequence of EGFR L858R kinase domain (P00533 669-1210 L858R): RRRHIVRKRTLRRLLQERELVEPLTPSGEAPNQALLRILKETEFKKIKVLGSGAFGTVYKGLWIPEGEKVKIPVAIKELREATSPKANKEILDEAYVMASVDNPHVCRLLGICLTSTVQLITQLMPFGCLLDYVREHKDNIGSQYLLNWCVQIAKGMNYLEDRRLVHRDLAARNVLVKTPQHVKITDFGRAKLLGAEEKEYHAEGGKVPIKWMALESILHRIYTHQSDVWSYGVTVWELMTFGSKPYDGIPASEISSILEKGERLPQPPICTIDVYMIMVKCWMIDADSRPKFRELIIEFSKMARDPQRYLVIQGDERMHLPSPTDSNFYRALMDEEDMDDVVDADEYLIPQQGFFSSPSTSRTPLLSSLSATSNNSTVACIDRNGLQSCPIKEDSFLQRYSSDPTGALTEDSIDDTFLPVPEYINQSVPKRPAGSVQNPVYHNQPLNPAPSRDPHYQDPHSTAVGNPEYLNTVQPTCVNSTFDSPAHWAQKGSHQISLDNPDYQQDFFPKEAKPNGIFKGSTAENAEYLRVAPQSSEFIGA
Description: as §1

WT EGFR kinase domain = WT EGFR kinase domain (Homo sapiens (Human), UniProt P00533); experiment: EGFR enzymatic assay, TR-FRET, WT EGFR
Sequence of WT EGFR kinase domain (P00533 669-1210): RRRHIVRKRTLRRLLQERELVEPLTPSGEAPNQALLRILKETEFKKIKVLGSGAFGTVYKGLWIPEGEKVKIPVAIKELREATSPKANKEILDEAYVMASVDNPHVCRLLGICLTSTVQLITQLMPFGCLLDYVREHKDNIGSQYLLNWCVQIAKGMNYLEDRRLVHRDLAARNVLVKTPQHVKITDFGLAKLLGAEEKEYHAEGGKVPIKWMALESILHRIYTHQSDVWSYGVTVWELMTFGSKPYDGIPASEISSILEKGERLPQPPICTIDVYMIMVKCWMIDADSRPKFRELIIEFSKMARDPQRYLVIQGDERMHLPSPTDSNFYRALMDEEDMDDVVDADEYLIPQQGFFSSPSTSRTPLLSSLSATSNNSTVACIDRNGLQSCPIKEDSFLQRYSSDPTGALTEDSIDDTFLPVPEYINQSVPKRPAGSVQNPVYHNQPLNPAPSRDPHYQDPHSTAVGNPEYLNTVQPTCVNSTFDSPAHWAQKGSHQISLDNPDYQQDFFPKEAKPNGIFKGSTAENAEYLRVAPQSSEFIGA
Description: as §1

Sequence of EGFR T790M/L858R kinase domain (P00533 669-1210 T790M/L858R): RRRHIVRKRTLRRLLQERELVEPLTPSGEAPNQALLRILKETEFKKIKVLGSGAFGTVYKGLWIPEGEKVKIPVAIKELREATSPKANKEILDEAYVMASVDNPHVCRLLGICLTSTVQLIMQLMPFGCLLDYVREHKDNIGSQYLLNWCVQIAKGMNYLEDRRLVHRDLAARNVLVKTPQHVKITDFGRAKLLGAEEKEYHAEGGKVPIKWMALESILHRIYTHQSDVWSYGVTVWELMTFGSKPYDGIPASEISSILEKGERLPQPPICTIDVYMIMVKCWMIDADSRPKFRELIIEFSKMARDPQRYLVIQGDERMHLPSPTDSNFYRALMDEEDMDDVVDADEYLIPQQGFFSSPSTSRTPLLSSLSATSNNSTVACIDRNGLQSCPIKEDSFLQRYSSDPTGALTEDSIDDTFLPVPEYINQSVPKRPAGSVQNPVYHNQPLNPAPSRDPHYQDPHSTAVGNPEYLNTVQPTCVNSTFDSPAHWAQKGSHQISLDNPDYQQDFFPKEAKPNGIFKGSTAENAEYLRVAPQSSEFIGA

pIC50 [1] | pIC50 (B-Raf (V600E)) | pIC50 (EGFR L858R kinase domain) | pIC50 (WT EGFR kinase domain) | Compound
10.08 | 7.80 | 9.82 | 9.17 | CN1CCN(Cc2ccc(C(=O)N[C@@H]3[C@H]4Oc5ccc(Oc6ccnc7c6CNC(=O)N7)cc5[C@@H]34)cc2C(F)(F)F)CC1 [Compound 2.7]
7.02 | 9.11 | 7.15 | 7.01 | CCCCCCC(=O)N[C@@H]1[C@H]2Oc3ccc(Oc4ccnc5c4CCC(=O)N5)cc3[C@@H]12 [Compound 1.68]
6.94 | 8.89 | 7.55 | 7.38 | O=C1CCc2c(Oc3ccc4c(c3)[C@H]3[C@H](NC(=O)c5cncc(C(F)(F)F)c5)[C@H]3O4)ccnc2N1 [Compound 1.62]
5.85 | 9.22 | 6.74 | 6.41 | CCCCCC(=O)N[C@@H]1[C@H]2Oc3ccc(Oc4ccnc5c4CCC(=O)N5)cc3[C@@H]12 [Compound 1.67]
5.89 | 7.62 | 6.64 | 6.20 | CCCCCCCCCC(=O)N[C@@H]1[C@H]2Oc3ccc(Oc4ccnc5c4CCC(=O)N5)cc3[C@@H]12 [Compound 1.70]
9.33 | 7.68 | 9.40 | 8.60 | Cc1cc(Oc2ccnc3c2CCC(=O)N3)cc2c1OC1C(NC(=O)c3ccc(CN4CCN(C)CC4)c(C(F)(F)F)c3)C21 (centres unmarked) [Compound 1.56]
7.68 | 8.00 | 8.68 | 8.57 | CN(C)C1CCN(c2ccc(C(=O)N[C@@H]3[C@H]4Oc5ccc(Oc6ccnc7c6CCC(=O)N7)cc5[C@@H]34)cc2C(F)(F)F)CC1 [Compound 1.71]
9.33 | 8.32 | 9.64 | 9.10 | CN1CCN(Cc2ccc(C(=O)N[C@@H]3[C@H]4Oc5ccc(Oc6ccnc7c6CCC(=O)N7)cc5[C@@H]34)cc2Cl)CC1 [Compound 1.22]
7.33 | 7.07 | 7.96 | 7.23 | C[C@@H]1CN(Cc2ccc(C(=O)N[C@@H]3[C@H]4Oc5ccc(Oc6ccnc7c6CCC(=O)N7)cc5[C@@H]34)cc2C(F)(F)F)C[C@H](C)O1 [Compound 1.13]
7.96 | 8.09 | 8.96 | 8.72 | CC1CN(Cc2ccc(C(=O)N[C@@H]3[C@H]4Oc5ccc(Oc6ccnc7c6CCC(=O)N7)cc5[C@@H]34)cc2C(F)(F)F)CC(C)N1 (stereo partly drawn) [Compound 1.65, 4-((3,5-dimethylpiperazin-1-yl)methyl)-N-((1S,1aS,6bS)-5-((7-oxo-5,6,7,8-tetrahydro-1,8-naphthyridin-4-yl)oxy)-1a,6b-dihydro-1H-cyclopropa[b]benzofuran-1-yl)-3-(trifluoromethyl)benzamide]
9.28 | 8.27 | 9.62 | 8.96 | CN1CCN(Cc2ccc(C(=O)N[C@@H]3[C@H]4Oc5ccc(Oc6ccnc7c6CCC(=O)N7)cc5[C@@H]34)cc2Br)CC1 [Compound 1.23]
7.74 | 8.23 | 9.24 | 8.89 | CN1CCN(Cc2ccc(C(=O)N[C@@H]3[C@H]4Oc5ccc(Oc6ccnc7c6CCC(=O)N7)cc5[C@@H]34)cc2)CC1 [Compound 1.11]
7.60 | 7.96 | 8.15 | 8.20 | CCN1CCN(c2ccc(C(=O)N[C@@H]3[C@H]4Oc5ccc(Oc6ccnc7c6CCC(=O)N7)cc5[C@@H]34)cc2C(F)(F)F)CC1 [Compound 1.50]
6.09 | 7.57 | 6.53 | 6.60 | O=C1CCc2c(Oc3ccc4c(c3)[C@H]3[C@H](NC(=O)c5ccc(CN6CCN(CC(F)(F)F)CC6)c(C(F)(F)F)c5)[C@H]3O4)ccnc2N1 [Compound 1.2]
8.28 | 7.80 | 9.04 | 8.77 | CN(C)[C@@H]1CCCN(c2ccc(C(=O)N[C@@H]3[C@H]4Oc5ccc(Oc6ccnc7c6CCC(=O)N7)cc5[C@@H]34)cc2C(F)(F)F)C1 [Compound 1.48]
8.74 | 8.26 | 9.51 | 8.92 | Cc1cc(C(=O)N[C@@H]2[C@H]3Oc4ccc(Oc5ccnc6c5CCC(=O)N6)cc4[C@@H]23)ccc1CN1CCN(C)CC1 [Compound 1.58]
8.96 | 8.27 | 9.57 | 9.26 | CCN1CCN(Cc2ccc(C(=O)N[C@@H]3[C@H]4Oc5ccc(Oc6ccnc7c6CCC(=O)N7)cc5[C@@H]34)cc2Br)CC1 [Compound 1.19]
9.09 | 7.24 | 9.33 | 8.39 | CCN1CCN(Cc2ccc(C(=O)N[C@@H]3[C@H]4Oc5ccc(Oc6ccnc(N)c6)cc5[C@@H]34)cc2C(F)(F)F)CC1 [Compound 2.5, N-((1S,1aS,6bS)-5-((2-aminopyridin-4-yl)oxy)-1a,6b-dihydro-1H-cyclopropa[b]benzofuran-1-yl)-4-((4-ethylpiperazin-1-yl)methyl)-3-(trifluoromethyl)benzamide]
8.14 | 7.31 | 8.39 | 8.17 | CNC(=O)c1cc(Oc2ccc3c(c2)[C@H]2[C@H](NC(=O)c4ccc(CN5CCN(C)CC5)c(C(F)(F)F)c4)[C@H]2O3)ccn1 [Compound 2.4]
7.47 | 8.16 | 9.04 | 8.74 | CCN1CCN(Cc2ccc(C(=O)N[C@@H]3[C@H]4Oc5ccc(Oc6ccnc7c6CCC(=O)N7)cc5[C@@H]34)cc2OC)CC1 [Compound 1.73]
6.63 | 8.82 | 7.12 | 6.88 | O=C1CCc2c(Oc3ccc4c(c3)[C@H]3[C@H](NC(=O)c5ccnc(C(F)(F)F)c5)[C@H]3O4)ccnc2N1 [Compound 1.61]
7.49 | 8.11 | 9.00 | 8.52 | COc1cc(C(=O)N[C@@H]2[C@H]3Oc4ccc(Oc5ccnc6c5CCC(=O)N6)cc4[C@@H]23)ccc1CN1CCN(C)CC1 [Compound 1.72]
8.21 | 9.00 | 8.32 | 7.72 | Cc1cc(C(=O)N[C@@H]2[C@H]3Oc4ccc(Oc5ccnc6c5CCC(=O)N6)cc4[C@@H]23)ccc1CO [Compound 1.59, 4-(hydroxymethyl)-3-methyl-N-((1S,1aS,6bS)-5-((7-oxo-5,6,7,8-tetrahydro-1,8-naphthyridin-4-yl)oxy)-1a,6b-dihydro-1H-cyclopropa[b]benzofuran-1-yl)benzamide]
9.70 | 8.00 | 9.77 | 9.13 | CCN1CCC(Cc2ccc(C(=O)N[C@@H]3[C@H]4Oc5ccc(Oc6ccnc7c6CCC(=O)N7)cc5[C@@H]34)cc2C(F)(F)F)CC1 [Compound 1.74, 4-((1-ethylpiperidin-4-yl)methyl)-N-((1S,1aS,6bS)-5-((7-oxo-5,6,7,8-tetrahydro-1,8-naphthyridin-4-yl)oxy)-1a,6b-dihydro-1H-cyclopropa[b]benzofuran-1-yl)-3-(trifluoromethyl)benzamide]
8.52 | 8.06 | 9.55 | 8.89 | CN1CCN(Cc2ccc(C(=O)N[C@@H]3[C@H]4Oc5ccc(Oc6ccnc7c6CCC(=O)N7)cc5[C@@H]34)cc2F)CC1 [Compound 1.21]
5.59 | 8.82 | 6.02 | 5.46 | O=C1CCc2c(Oc3ccc4c(c3)[C@H]3[C@H](NC(=O)Cc5cccc(C(F)(F)F)c5)[C@H]3O4)ccnc2N1 [Compound 1.60]
6.11 | 8.70 | 6.94 | 6.93 | CCCCCCCC(=O)N[C@@H]1[C@H]2Oc3ccc(Oc4ccnc5c4CCC(=O)N5)cc3[C@@H]12 [Compound 1.69]
6.92 | 7.96 | 7.54 | 6.60 | CN1CCN(Cc2ccc(C(=O)N[C@H]3[C@@H]4Oc5ccc(Oc6ccnc7c6CCC(=O)N7)cc5[C@H]34)cc2C(F)(F)F)CC1 [Compound 1.34]
7.51 | 8.43 | 7.74 | 8.38 | O=C1CCc2c(Oc3ccc4c(c3)[C@H]3[C@H](NC(=O)c5ccc(CO)c(C(F)(F)F)c5)[C@H]3O4)ccnc2N1 [Compound 1.76, 4-(hydroxymethyl)-N-((1S,1aS,6bS)-5-((7-oxo-5,6,7,8-tetrahydro-1,8-naphthyridin-4-yl)oxy)-1a,6b-dihydro-1H-cyclopropa[b]benzofuran-1-yl)-3-(trifluoromethyl)benzamide]

From patent publication US9670231B2, “Fused tricyclic amide compounds as multiple kinase inhibitors” (BEIGENE, LTD., priority 2013, dated 2017)
